Legend:
P-gp [1] = molecular target: T1, P-gp (Homo sapiens, UniProt P08183); assay: Inhibition of Calcein-AM transport in MDCK-MDR1 cells; assay type: cell-based; conditions: Calcein-AM, MDCK-MDR1 cells; mean ± SEM of two experiments
T1 construct: expressed in transfected cells; host or cells: MDCK-MDR1 (Madin-Darby Canine Kidney cells, gift of Prof. P. Borst, NKI-AVL)
Description: These experiments were carried out as previously described by Teodori et al. with minor modifications. Each cell line (30 000 cells per well) was seeded into black CulturePlate 96/wells plate with 100 µL medium and allowed to become confluent overnight. 100 µL of test compounds were solubilised in culture medium and added to monolayers, with final concentrations ranging from 1 nM to 100 µM. 96/Wells plate was incubated for 30 min in a humidified atmosphere 5% CO2 at 37 °C. Calcein-AM was added in 100 µL of Phosphate Buffered Saline (PBS) to yield a final concentration of 2.5 µM and plate was incubated for 30 min in a humidified atmosphere 5% CO2 at 37 °C. Each well was washed 3 times with ice cold PBS. Saline buffer was added to each well and the plate was read with Victor3 (PerkinElmer) at excitation and emission wavelengths of 485 and 535 nm, respectively. In these experimental conditions, Calcein cell accumulation in the absence and in the presence of tested compounds was evaluated and fluorescence basal level was estimated with untreated cells. In treated wells the increase of fluorescence with respect to basal level was measured. EC50 values were determined by fitting the fluorescence increase percentage versus log[dose].
The interaction potency between the designed compounds and P-gp was evaluated by measuring the transport inhibition of the pro-fluorescent probe Calcein-AM, that is a P-gp substrate, in a cell line overexpressing P-gp (MDCK-MDR1)[47]. The P-gp interacting profile was further investigated with two other assays: the Apparent Permeability (Papp) determination (BA/AB) in Caco-2 cell monolayer[48]^,[49], and the ATP cell depletion in the MDCK-MDR1 cell line[50]. […] Papp determination measures the ratio between two fluxes: from the basolateral to apical compartments (BA, representative of passive diffusion) and from the apical to basolateral compartments (AB, representative of active transport). […] In the same manner, if (BA/AB) >2, the compound should probably be classified as a substrate.

[2] = Apparent permeability (Papp) determination (BA/AB) in Caco-2 cell monolayer; assay type: in vitro ADME; conditions: human, Caco-2 monolayer
Description: Caco-2 cells were seeded onto a Millicell® assay system (Millipore), where a cell monolayer is set in between a filter cell and a receiver plate, at a density of 10 000 cells/well[46]. The culture medium was replaced every 48 h and the cells kept for 21 days in culture. The Trans Epithelial Electrical Resistance (TEER) of the monolayers was measured daily, before and after the experiment, using an epithelial volt-ohmmeter (Millicell®-ERS). Generally, TEER values greater than 1000 Ω for a 21 days culture, are considered optimal.
After 21 days of Caco-2 cell growth, the medium was removed from filter wells and from the receiver plate, which were filled with fresh HBSS buffer (Invitrogen). This procedure was repeated twice, and the plates were incubated at 37 °C for 30 min. After incubation time, the HBSS buffer was removed and drug solutions and reference compounds were added to the filter well at the concentration of 100 µM, while fresh HBSS was added to the receiver plate. The plates were incubated at 37 °C for 120 min. Afterwards, samples were removed from the apical (filter well) and basolateral (receiver plate) side of the monolayer to measure the permeability.
(§1) The interaction potency between the designed compounds and P-gp was evaluated by measuring the transport inhibition of the pro-fluorescent probe Calcein-AM, that is a P-gp substrate, in a cell line overexpressing P-gp (MDCK-MDR1)[47]. The P-gp interacting profile was further investigated with two other assays: the Apparent Permeability (Papp) determination (BA/AB) in Caco-2 cell monolayer[48]^,[49], and the ATP cell depletion in the MDCK-MDR1 cell line[50]. Taking into account the results of the combined tests, an interacting compound can be classified as substrate or inhibitor. Papp determination measures the ratio between two fluxes: from the basolateral to apical compartments (BA, representative of passive diffusion) and from the apical to basolateral compartments (AB, representative of active transport). […] In the same manner, if (BA/AB) >2, the compound should probably be classified as a substrate. […] The selectivity of ligands 1–26 was evaluated by detecting their activity towards the other ABC transporters MRP1 and BCRP, by measuring the inhibition of the efflux of Calcein-AM (i.e., also a MRP1 substrate) in cells overexpressing MRP1 (MDCK-MRP1 cells), and the inhibition of the efflux of the fluorescent probe Hoechst 33342 (i.e. a BCRP substrate) in cells overexpressing BCRP (MDCK-BCRP cells), respectively.

[3] = Stability test in human plasma (LC-MS/MS); assay type: in vitro ADME; conditions: human plasma; for half-life at 1 µM: human, 37 °C
Description: Each sample was prepared adding 10 µL of working solution 1 to 100 µL of tested matrix (PBS or human plasma) in micro centrifuge tubes. The obtained solutions correspond to 1 µM of analyte.
After the incubation, the samples were added with 300 µL of ISTD solution and centrifuged (room temperature for 5 min at 10,000 rpm). The supernatants were transferred in auto sampler vials and dried under a gentle stream of nitrogen.
The dried samples were dissolved in 1.0 ml of 10 mM of formic acid in mQ water: acetonitrile 80:20 solution. The obtained sample solutions were analysed by LC-MS/MS methods described in Supplementary material.
For this purpose, a series of experiments were carried out, adding a known amount of analyte in both phosphate buffer solution (PBS) and in human plasma. The samples were analysed by LC-MS/MS method operating in Multiple Reaction Monitoring (MRM) mode[55].
The analyte concentration (1 µM) used during the stability tests is generally smaller than the corresponding Michaelis–Menten constant (KM); therefore, the enzymatic degradation rate is described by a first-order kinetic. Then, by plotting the natural logarithm of the quantitative data versus the incubation time, a linear function can be used and its slope represents the degradation rate (k).

P-gp [4] = molecular target: T1, P-gp; assay: ATP cell depletion (ATPlite assay) in MDCK-MDR1 cells; assay type: cell-based; conditions: Yes/No
Description: The MDCK-MDR1 cells were seeded into 96-well microplate in 100 µL of complete medium at a density 20,000 cells per well. The plate was incubated overnight (O/N) in a humidified atmosphere 5% CO2 at 37 °C. The medium was removed and 100 µL of complete medium either alone or containing different concentrations (ranging from 1 to 100 µM) of test compounds was added. The plate was incubated for 2 h in a humidified 5% CO2 atmosphere at 37 °C. 50 µL of mammalian cell lysis solution was added to all wells and the plate shacked for five minutes in an orbital shaker. 50 µL of substrate solution was added to all wells and the plate shacked for five minutes in an orbital shaker. The plate was dark adapted for ten minutes and the luminescence was measured.
as §1

T1 sequence (P08183 whole entry): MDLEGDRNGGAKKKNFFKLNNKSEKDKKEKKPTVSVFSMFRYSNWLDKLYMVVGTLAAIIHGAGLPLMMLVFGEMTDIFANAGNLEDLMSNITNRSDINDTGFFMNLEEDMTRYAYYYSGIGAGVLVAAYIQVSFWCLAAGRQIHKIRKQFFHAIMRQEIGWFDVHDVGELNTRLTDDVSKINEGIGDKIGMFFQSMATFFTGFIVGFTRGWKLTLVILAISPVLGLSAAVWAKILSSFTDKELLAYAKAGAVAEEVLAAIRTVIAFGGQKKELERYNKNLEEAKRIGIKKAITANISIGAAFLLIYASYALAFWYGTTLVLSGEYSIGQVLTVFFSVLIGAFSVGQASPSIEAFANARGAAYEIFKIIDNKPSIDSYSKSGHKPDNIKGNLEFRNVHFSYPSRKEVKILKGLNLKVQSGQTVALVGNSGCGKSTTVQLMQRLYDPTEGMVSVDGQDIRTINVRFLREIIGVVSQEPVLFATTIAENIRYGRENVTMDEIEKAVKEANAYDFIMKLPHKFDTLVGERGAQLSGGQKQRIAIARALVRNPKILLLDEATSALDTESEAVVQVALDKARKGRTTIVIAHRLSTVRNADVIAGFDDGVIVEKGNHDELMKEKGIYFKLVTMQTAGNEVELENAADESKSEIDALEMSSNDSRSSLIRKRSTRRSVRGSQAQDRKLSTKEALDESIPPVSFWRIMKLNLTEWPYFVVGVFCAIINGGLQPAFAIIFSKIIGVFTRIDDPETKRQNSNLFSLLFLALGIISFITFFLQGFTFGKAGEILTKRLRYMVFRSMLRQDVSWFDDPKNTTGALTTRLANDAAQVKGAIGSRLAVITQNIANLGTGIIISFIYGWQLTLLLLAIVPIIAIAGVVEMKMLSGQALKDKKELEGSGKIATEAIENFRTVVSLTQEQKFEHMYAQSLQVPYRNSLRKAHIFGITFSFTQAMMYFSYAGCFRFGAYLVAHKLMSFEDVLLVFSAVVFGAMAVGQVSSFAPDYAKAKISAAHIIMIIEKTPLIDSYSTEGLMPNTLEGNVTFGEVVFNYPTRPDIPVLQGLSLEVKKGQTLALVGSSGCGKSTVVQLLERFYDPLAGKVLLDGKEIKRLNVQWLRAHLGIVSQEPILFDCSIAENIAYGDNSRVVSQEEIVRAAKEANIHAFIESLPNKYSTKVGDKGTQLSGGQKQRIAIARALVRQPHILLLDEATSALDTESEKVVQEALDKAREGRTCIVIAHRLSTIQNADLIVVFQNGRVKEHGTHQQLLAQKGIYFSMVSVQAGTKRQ

SMILES | EC50 (P-gp [1]) [nM] | efflux ratio at 120 min, 100 µM [2] | half-life at 1 µM [3] [min] | ATP cell depletion (P-gp [4]) | t1/2 ([3]; reference compound for enzymatic activity of the batch) [h]
COc1cc2c(cc1OC)CN(CCc1ccc(NC(=O)c3cccnc3)cc1)CC2 [Compound 9, N-(4–(2-(6,7-dimethoxy-3,4-dihydroisoquinolin-2(1H)-yl)ethyl)phenyl)nicotinamide] | 6400 ± 1260 | 7.3 | ≥ 240 | No | –
COc1cc2c(cc1OC)CN(CCc1ccc(NC(=O)c3c(OC)cccc3OC)cc1)CC2 [Compound 4, N-(4–(2-(6,7-dimethoxy-3,4-dihydroisoquinolin-2(1H)-yl)ethyl)phenyl)-2,6-dimethoxybenzamide] | 7200 ± 1390 | 5.5 | ≥ 240 | No | –
COc1ccc(C(=O)Nc2ccc(CCN3CCc4cc(OC)c(OC)cc4C3)cc2)cn1 [Compound 10, N-(4–(2-(6,7-dimethoxy-3,4-dihydroisoquinolin-2(1H)-yl)ethyl)phenyl)-6-methoxynicotinamide] | 2300 ± 440 | 7.5 | ≥ 240 | No | –
CCOC(=O)C(C)c1cccc(C(=O)c2ccccc2)c1 (stereo not drawn) [KEE, Ketoprofen ethyl ester, reference compound] | – | – | – | – | < 2
COc1cc2c(cc1OC)CN(CCc1ccc(NC(=O)c3c(OC)ccc4ccccc34)cc1)CC2 [Compound 7, N-(4–(2-(6,7-dimethoxy-3,4-dihydroisoquinolin-2(1H)-yl)ethyl)phenyl)-2-methoxy-1-naphthamide] | 120 ± 22 | 11.8 | ≥ 240 | No | –
COc1ccc2nccc(C(=O)Oc3ccc(CCN4CCc5cc(OC)c(OC)cc5C4)cc3)c2c1 [Compound 26, 4–(2-(6,7-Dimethoxy-3,4-dihydroisoquinolin-2(1H)-yl)ethyl)phenyl 6-methoxyquinoline-4-carboxylate] | 1400 ± 260 | 8.7 | 124 ± 27 | No | –
COc1cc2c(cc1OC)CN(CCc1ccc(NC(=O)c3cnccn3)cc1)CC2 [Compound 11, N-(4–(2-(6,7-dimethoxy-3,4-dihydroisoquinolin-2(1H)-yl)ethyl)phenyl)pyrazine-2-carboxamide] | 1900 ± 320 | 4.9 | ≥ 240 | No | –
COc1cc2c(cc1OC)CN(CCc1ccc(OC(=O)c3cnccn3)cc1)CC2 [Compound 24, 4–(2-(6,7-Dimethoxy-3,4-dihydroisoquinolin-2(1H)-yl)ethyl)phenyl pyrazine-2-carboxylate] | 1900 ± 320 | 4.9 | 42 ± 20 | No | –
COc1cc2c(cc1OC)CN(CCc1ccc(OC(=O)c3c(OC)cccc3OC)cc1)CC2 [Compound 17, 4–(2-(6,7-Dimethoxy-3,4-dihydroisoquinolin-2(1H)-yl)ethyl)phenyl 2,6-dimethoxybenzoate] | 150 ± 30 | 6.2 | ≥ 240 | No | –
COc1cc2c(cc1OC)CN(CCc1ccc(OC(=O)c3cccnc3)cc1)CC2 [Compound 22, 4–(2-(6,7-Dimethoxy-3,4-dihydroisoquinolin-2(1H)-yl)ethyl)phenyl nicotinate] | 29400 ± 4980 | 5 | ≥ 240 | No | –
COc1cc2c(cc1OC)CN(CCc1ccc(NC(=O)c3ccccc3OC)cc1)CC2 [Compound 2, N-(4–(2-(6,7-dimethoxy-3,4-dihydroisoquinolin-2(1H)-yl)ethyl)phenyl)-2-methoxybenzamide] | 440 ± 82 | 5.9 | ≥ 240 | No | –
COc1ccc2nccc(C(=O)Nc3ccc(CCN4CCc5cc(OC)c(OC)cc5C4)cc3)c2c1 [Compound 13, N-(4–(2-(6,7-dimethoxy-3,4-dihydroisoquinolin-2(1H)-yl)ethyl)phenyl)-6-methoxyquinoline-4-carboxamide] | 660 ± 130 | 6.5 | ≥ 240 | No | –
COc1cc2c(cc1OC)CN(CCc1ccc(NC(=O)c3cccc4c(=O)c5cccc(OC)c5[nH]c34)cc1)CC2 [elacridar, reference compound] | – | – | – | Yes^g | –
COc1ccc(C(=O)Oc2ccc(CCN3CCc4cc(OC)c(OC)cc4C3)cc2)cn1 [Compound 23, 4–(2-(6,7-Dimethoxy-3,4-dihydroisoquinolin-2(1H)-yl)ethyl)phenyl 6-methoxynicotinate] | 9240 ± 1810 | 5.6 | ≥ 240 | No | –
COc1cc2c(cc1OC)CN(CCc1ccc(NC(=O)c3cccc4ccccc34)cc1)CC2 [Compound 6, N-(4–(2-(6,7-dimethoxy-3,4-dihydroisoquinolin-2(1H)-yl)ethyl)phenyl)-1-naphthamide] | 670 ± 120 | 3.6 | ≥ 240 | No | –

Reference: PMC7178819, “6,7-Dimethoxy-2-phenethyl-1,2,3,4-tetrahydroisoquinoline amides and corresponding ester isosteres as multidrug resistance reversers” (Journal of Enzyme Inhibition and Medicinal Chemistry, 2020)
